Test results reported in US20230203060A1 (GENFLEET THERAPEUTICS (SHANGHAI) INC., priority 2020, published 2023).

The molecules below were run against T1, KRAS G12C (Homo sapiens, UniProt P01116, G12C) (assay: KRAS G12C NEA-HTRF experiment (SOS1-catalyzed displacement of GDP by GTP)).
T1 construct: purchased Reactionbiology
T1 sequence (P01116 1-188 isoform P01116-2 G12C): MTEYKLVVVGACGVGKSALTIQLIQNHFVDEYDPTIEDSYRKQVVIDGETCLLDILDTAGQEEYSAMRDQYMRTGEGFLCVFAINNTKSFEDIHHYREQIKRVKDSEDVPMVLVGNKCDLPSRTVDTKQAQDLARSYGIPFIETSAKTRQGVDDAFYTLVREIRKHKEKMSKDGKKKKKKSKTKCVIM
Format: biochemical
Method in brief: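 His-tagged KRAS G12C preloaded with DY647-GDP was preincubated 15 min at 20 °C with compound, then exchanged with SOS1 (0.2 μM working solution) and GTP (200 μM working solution) for 2 h at 20 °C in the dark. HTRF 665/615 nm ratio with anti-His-Tb was normalised to T0 and no-compound controls; IC50 by four-parameter fit.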
Work on C=CC(=O)N1CCN2C(=O)c3c(N4CCN(C)[C@@H](C)[C@H]4C)nc(-c4ccccc4F)c(Cl)c3OC[C@H]2C1 (single isomer, unassigned) [Z465-1] yielded an IC50 of 144 nM. Molecule C=CC(=O)N1CCN2C(=O)c3c(N4CCN(C)C[C@@H]4C)nc(-c4ccccc4Cl)c(Cl)c3OC[C@H]2C1 [Z461, (R)-8-acryloyl-4-chloro-3-(2-chlorophenyl)-1-((S)-2,4-dimethylpiperazin-1-yl)-6,6a,7,8,9,10-hexahydro-12H-pyrazino[2,1-c]pyrido[3,4-f][1,4]oxazepin-12-one] has an IC50 of 331 nM. Work on C=CC(=O)N1CCN2C(=O)c3c(N4C[C@@H](N(C)C)CC4(C)C)nc(-c4ccccc4F)c(Cl)c3OC[C@H]2C1 [Z453-1, (R)-8-acryloyl-4-chloro-1-((S)-4-(dimethylamino)-2,2-dimethylpyrrolidin-1-yl)-3-(2-fluorophenyl)-6,6a,7,8,9,10-hexahydro-12H-pyrazino[2,1-c]pyrido[3,4-f][1,4]oxazepin-12-one] yielded an IC50 of 43.6 nM. In the case of C=CC(=O)N1CCN2C(=O)c3c(N4C[C@@H](N(C)CC(F)(F)F)CC4(C)C)nc(-c4ccccc4F)c(Cl)c3OC[C@H]2C1 (single isomer, unassigned) [Z491], the IC50 is reported as 15 nM. In the case of C=CC(=O)N1CCN2C(=O)c3c(N4C[C@@H](N(C)CCO)CC4(C)C)nc(-c4ccccc4F)c(Cl)c3OC[C@H]2C1 (single isomer, unassigned) [Z658-1], the IC50 is reported as 23.8 nM. C=CC(=O)N1CCN2C(=O)c3c(N4C[C@H](N5CCN(C)CC5)CC4(C)C)nc(-c4c(O)cccc4F)c(Cl)c3OC[C@H]2C1 (single isomer, unassigned) [Z469-2] gave an IC50 of 18 nM. In the case of C=CC(=O)N1CCN2C(=O)c3c(N4CC(O)CC4(C)C)nc(-c4c(O)cccc4F)c(Cl)c3OC[C@H]2C1 (stereo partly drawn) [Z50, (6aR)-8-amyloyl-4-chloro-3-(2-fluoro-6-hydroxyphenyl)-1-(4-hydroxy-2,2-dimethylpyrrolidin-1-yl)-6,6a,7,8,9,10-hexahydro-12H-pyrazino[2,1-c]pyrido[3,4-f][1,4]oxazepin-12-one], the IC50 is reported as 21 nM. C=CC(=O)N1CCN2C(=O)c3c(N4C[C@@H](N5CCN(C)CC5)CC4(C)C)nc(-c4c(O)cccc4F)c(Cl)c3OC[C@H]2C1 (single isomer, unassigned) [Z469-1] was tested, and the IC50 was 5 nM. C=CC(=O)N1CCN2C(=O)c3c(N4C[C@@H](N(C)C)CC4(C)C)nc(-c4cccc(C)c4F)c(Cl)c3OC[C@H]2C1 (single isomer, unassigned) [Z472-1] showed an IC50 of 145 nM. For C=CC(=O)N1CCN2C(=O)c3c(N4C[C@@H](N(C)CCF)CC4(C)C)nc(-c4ccccc4F)c(Cl)c3OC[C@H]2C1 (single isomer, unassigned) [Z660-1], the IC50 was 11.3 nM. C=CC(=O)N1CCN2C(=O)c3c(N4C[C@@H](N5CCN(C)CC5)CC4(C)C)nc(-c4ccccc4F)c(F)c3OC[C@H]2C1 (single isomer, unassigned) [Z474-1] gave an IC50 of 89 nM. In the case of C=CC(=O)N1CCN2C(=O)c3c(N4CCC[C@@]4(C)C(=O)NC)nc(-c4c(O)cccc4F)c(Cl)c3OC[C@H]2C1 [Z462, (2S)-1-((6aR)-8-acryloyl-4-chloro-3-(2-fluoro-6-hydroxyphenyl)-12-oxo-6,6a,7,8,9,10-hexahydro-12H-pyrazino[2,1-c]pyrido[3,4-f][1,4]oxazepin-1-yl)-N,2-dimethylpyrrolidine-2-carboxamide], the IC50 is reported as 131 nM. Molecule C=CC(=O)N1CCN2C(=O)c3c(N4CCN(C)C[C@@H]4C)nc(-c4c(O)cccc4Cl)c(Cl)c3OC[C@H]2C1 [Z452, (6aR)-8-acryloyl-4-chloro-3-(2-chloro-6-hydroxyphenyl)-1-((S)-2,4-dimethylpiperazin-1-yl)-6,6a,7,8,9,10-hexahydro-12H-pyrazino[2,1-c]pyrido[3,4-f][1,4]oxazepin-12-one] has an IC50 of 46.9 nM. Molecule C=CC(=O)N1CCN2C(=O)c3c(N4C[C@H](N(C)C)CC4(C)C)nc(-c4cccc(C)c4F)c(Cl)c3OC[C@H]2C1 (single isomer, unassigned) [Z472-2] has an IC50 of 60 nM.
